Test results as given in patent publication US8959984B2, “Proteome-wide quantification of small molecule binding to cellular target proteins” (priority 2007, dated 2015).
pKi: −log10 of the molar value.

What was measured:
Experiment in all cases: binding to VI16742 beads (HeLa lysate, SILAC MS)
LIMS1 (IPI00788612) = test system: LIMS1 (IPI00788612); set-up: species or system human
From the text: (§1) In an alternative implementation of the chemical proteomic approach according to the invention, the broadly-selective pyrido[2,3-d]pyrimidine-based kinase inhibitor VI16742 has been used for affinity capture (FIG. 10a). […] As shown by gene ontology analysis, the corresponding molecular functions were highly over-represented in proteins specifically retained by the inhibitor resin (FIG. 10b).

ERCC2 (IPI00029728) = test system: ERCC2 (IPI00029728); set-up: species or system human
From the text: as §1

CCNH (IPI00021305) = test system: CCNH (IPI00021305); set-up: species or system human
From the text: as §1

WDR68 (IPI00006754) = test system: WDR68 (IPI00006754); set-up: species or system human
From the text: as §1

RSU1 (IPI00847168) = test system: RSU1 (IPI00847168); set-up: species or system human
From the text: as §1

CCNK (IPI00783214) = test system: CCNK (IPI00783214); set-up: species or system human
From the text: as §1

PARVA (IPI00018963) = test system: PARVA (IPI00018963); set-up: species or system human
From the text: as §1

[1] = target: T1, TAO3 (TAOK3, IPI00410485) (Homo sapiens, UniProt Q9H2K8)
T1 construct: endogenous in cells; host or cells: HeLa S3
T1 sequence (Q9H2K8 1-898): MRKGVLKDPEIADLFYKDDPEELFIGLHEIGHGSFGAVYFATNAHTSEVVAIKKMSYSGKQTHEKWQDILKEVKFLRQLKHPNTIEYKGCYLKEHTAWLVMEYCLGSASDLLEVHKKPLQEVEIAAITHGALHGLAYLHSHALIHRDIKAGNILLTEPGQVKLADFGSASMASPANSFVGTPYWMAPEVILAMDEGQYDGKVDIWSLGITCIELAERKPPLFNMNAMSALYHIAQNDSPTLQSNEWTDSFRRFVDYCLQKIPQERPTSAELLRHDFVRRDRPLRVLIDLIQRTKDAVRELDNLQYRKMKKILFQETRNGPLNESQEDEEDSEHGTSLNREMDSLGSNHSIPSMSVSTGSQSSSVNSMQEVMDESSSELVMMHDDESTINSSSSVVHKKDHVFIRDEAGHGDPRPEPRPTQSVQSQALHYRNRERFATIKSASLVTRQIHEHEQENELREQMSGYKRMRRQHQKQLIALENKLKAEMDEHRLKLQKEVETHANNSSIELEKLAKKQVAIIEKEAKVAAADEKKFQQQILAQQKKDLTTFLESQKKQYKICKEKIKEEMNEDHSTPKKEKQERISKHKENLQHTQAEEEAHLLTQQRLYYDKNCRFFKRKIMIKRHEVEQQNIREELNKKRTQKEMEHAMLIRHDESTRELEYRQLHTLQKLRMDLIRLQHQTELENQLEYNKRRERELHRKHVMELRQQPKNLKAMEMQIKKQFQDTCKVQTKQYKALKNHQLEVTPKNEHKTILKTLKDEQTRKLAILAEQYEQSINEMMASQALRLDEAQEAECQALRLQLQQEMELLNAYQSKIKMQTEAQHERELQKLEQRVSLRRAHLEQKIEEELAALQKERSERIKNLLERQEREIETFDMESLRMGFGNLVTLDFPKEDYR
How it was run: (§2)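 Affinity capture: immobilised pyrido[2,3-d]pyrimidine kinase inhibitor, broad selectivity. Specific retention on the resin counted as binding.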

RPSA (IPI00413108) = target: T2, RPSA (IPI00413108) (Homo sapiens, UniProt P08865)
T2 construct: endogenous in cells; host or cells: HeLa S3
How it was run: as §2

MAP2K3 (IPI00218858) = target: T3, MAP2K3 (IPI00218858) (Homo sapiens, UniProt P46734)
T3 construct: endogenous in cells; host or cells: HeLa S3
T3 sequence (P46734 1-347): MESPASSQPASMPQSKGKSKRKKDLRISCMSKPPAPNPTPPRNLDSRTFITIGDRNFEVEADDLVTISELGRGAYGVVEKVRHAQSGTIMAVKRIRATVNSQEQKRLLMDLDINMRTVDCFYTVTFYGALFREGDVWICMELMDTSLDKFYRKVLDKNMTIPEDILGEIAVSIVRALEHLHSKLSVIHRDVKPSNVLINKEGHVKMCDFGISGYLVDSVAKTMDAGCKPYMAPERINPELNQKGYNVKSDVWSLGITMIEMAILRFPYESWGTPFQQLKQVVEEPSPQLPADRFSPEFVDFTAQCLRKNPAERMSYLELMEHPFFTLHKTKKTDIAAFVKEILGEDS
How it was run: as §2

[2] = control beads vs first incubation

CC(C)n1c(=O)ccc2cnc(Nc3ccc(OCCN)cc3)nc21 [V16742] was tested, and the “rAVERAGE (CTRL/1 INC)” value (LIMS1 (IPI00788612); [2]) was 0.04, the pKi (LIMS1 (IPI00788612); immobilized VI16742) was 3.84 and the “rAVERAGE (2 INC/1 INC)” value (LIMS1 (IPI00788612); second vs first incubation) was 0.73. For the same compound, the “rAVERAGE (CTRL/1 INC)” value (ERCC2 (IPI00029728); [2]) was 0.17, the pKi (ERCC2 (IPI00029728); immobilized VI16742) was 3.93 and the “rAVERAGE (2 INC/1 INC)” value (ERCC2 (IPI00029728); second vs first incubation) was 0.69. For the same compound, the “rAVERAGE (CTRL/1 INC)” value (CCNH (IPI00021305); [2]) was 0.05, the pKi (CCNH (IPI00021305); immobilized VI16742) was 4.01 and the “rAVERAGE (2 INC/1 INC)” value (CCNH (IPI00021305); second vs first incubation) was 0.65. For the same compound, the “r (3 MG/1 MG LYSATE)” value (WDR68 (IPI00006754); 3 mg vs 1 mg lysate) was 2.58, the “r (5 h/2.5 h INC. TIME)” value (WDR68 (IPI00006754); 5 h vs 2.5 h incubation time) was 1.31 and the “rAVERAGE (CTRL/1 INC)” value (WDR68 (IPI00006754); [2]) was 0.17. For the same compound, the pKi (WDR68 (IPI00006754); immobilized VI16742) was 3.60, the “rAVERAGE (2 INC/1 INC)” value (WDR68 (IPI00006754); second vs first incubation) was 0.83 and the “r (5 h/2.5 h INC. TIME)” value (RSU1 (IPI00847168); 5 h vs 2.5 h incubation time) was 1.34. For the same compound, the “rAVERAGE (CTRL/1 INC)” value (RSU1 (IPI00847168); [2]) was 0.07, the pKi (RSU1 (IPI00847168); immobilized VI16742) was 3.66 and the “rAVERAGE (2 INC/1 INC)” value (RSU1 (IPI00847168); second vs first incubation) was 0.81. The “r (3 MG/1 MG LYSATE)” value (CCNK (IPI00783214); 3 mg vs 1 mg lysate) was 3.84, the “r (5 h/2.5 h INC. TIME)” value (CCNK (IPI00783214); 5 h vs 2.5 h incubation time) was 1.27 and the “rAVERAGE (CTRL/1 INC)” value (CCNK (IPI00783214); [2]) was 0.12. The pKi (CCNK (IPI00783214); immobilized VI16742) was 3.92, the “rAVERAGE (2 INC/1 INC)” value (CCNK (IPI00783214); second vs first incubation) was 0.70 and the “rAVERAGE (CTRL/1 INC)” value (PARVA (IPI00018963); [2]) was 0.06. For the same compound, the pKi (PARVA (IPI00018963); immobilized VI16742) was 3.81, the “rAVERAGE (2 INC/1 INC)” value (PARVA (IPI00018963); second vs first incubation) was 0.75 and the “r (3 MG/1 MG LYSATE)” value ([1]; 3 mg vs 1 mg lysate) was 2.95. For the same compound, the “rAVERAGE (CTRL/1 INC)” value [1, 2] was 0.09, the pKi ([1]; immobilized VI16742) was 3.93 and the “rAVERAGE (2 INC/1 INC)” value ([1]; second vs first incubation) was 0.69. The “r (3 MG/1 MG LYSATE)” value (RPSA (IPI00413108); 3 mg vs 1 mg lysate) was 3.92, the “r (5 h/2.5 h INC. TIME)” value (RPSA (IPI00413108); 5 h vs 2.5 h incubation time) was 2.26 and the “rAVERAGE (CTRL/1 INC)” value (RPSA (IPI00413108); [2]) was 0.11. For the same compound, the pKi (RPSA (IPI00413108); immobilized VI16742) was 3.73, the “rAVERAGE (2 INC/1 INC)” value (RPSA (IPI00413108); second vs first incubation) was 0.78 and the “r (5 h/2.5 h INC. TIME)” value (MAP2K3 (IPI00218858); 5 h vs 2.5 h incubation time) was 1.60. The “rAVERAGE (CTRL/1 INC)” value (MAP2K3 (IPI00218858); [2]) was 0.05, the pKi (MAP2K3 (IPI00218858); immobilized VI16742) was 3.82 and the “rAVERAGE (2 INC/1 INC)” value (MAP2K3 (IPI00218858); second vs first incubation) was 0.74.
